Legend:
[1] = In vivo elution: TA by HPLC in eye tissues, aqueous and blood after subretinal PCL/TA 60:40 implant; conditions: four weeks after subretinal PCL/TA 60:40 implant, rabbit
[2] = three days following an injection; cited from earlier work
rabbit eye = conditions: in vivo
Procedure: Pupils were fully dilated before implantation with 1 drop each of cyclopentolate hydrochloride 1% (Bausch & Lomb, Rochester, N.Y.) and phenylephrine hydrochloride 5% (Bausch & Lomb). […] A periocular surgical prep was performed by swabbing the area using a 1:10 dilution of povidone iodine in saline. The surface of the eye was prepped with a 1:20 dilution of povidone iodine in saline. The rabbit was positioned under the operating microscope and draped. A wire lid speculum was placed.
A two-port core vitrectomy was performed, with illumination provided by the operating microscope (Carl Zeiss Ophthalmic Systems, Inc.). […] The feathered shape and semi-rigid structure of the implant allowed easy insertion. […] At the conclusion of surgery, a subconjunctival injection of antibiotic, 0.1 cc of 40 mg/ml gentamycin (Phoenix Scientific, St. Joseph, Mo.) and 0.1 cc of 2 mg/ml dexamethasone (Phoenix Scientific) was administered away from the surgery site. […]
Complete ophthalmic examinations using indirect ophthalmoscopy and a 20-diopter lens (Vantage Indirect Ophthalmoscope, Keeler Ltd., Windsor, England) were performed at baseline and 1, 2, and 4 weeks postoperatively. […] The lens was inspected for cataract formation and further evaluated with respect to any lens touch that may have occurred during the implantation.

## CC1(C)O[C@@H]2C[C@H]3[C@@H]4CCC5=CC(=O)C=C[C@]5(C)[C@@]4(F)[C@@H](O)C[C@]3(C)[C@]2(C(=O)CO)O1 [TA, Triamcinolone acetonide]
[1]
  TA in the anterior structures (HPLC): not detected
  TA in the blood (HPLC): not detected
[1]; qualitative, FIG. 9
  TA in the posterior tissue samples (HPLC): confirmed the presence

## C[C@]12C=CC(=O)C=C1CC[C@H]1[C@@H]3C[C@@H](O)[C@](O)(C(=O)CO)[C@@]3(C)C[C@H](O)[C@@]12F [triamcinolone]
[2]
  share of the triamcinolone present in the vitreous associated with other tissues including the retina, pigment epithelium, and sclera: less than 1%

## CO[C@H]1C[C@@H]2CC[C@@H](C)[C@@](O)(O2)C(=O)C(=O)N2CCCC[C@H]2C(=O)O[C@H]([C@H](C)C[C@@H]2CC[C@@H](O)[C@H](OC)C2)CC(=O)[C@H](C)/C=C(\C)[C@@H](O)[C@@H](OC)C(=O)[C@H](C)C[C@H](C)/C=C/C=C/C=C/1C [rapamycin]
Rabbit eye
  biocompatibility / toxicity, clinical examinations: may be toxic to the rabbit eye at the current doses
